Reference: US20150164946A1, “Thrush Treatment Paste” (priority 2013, published 2015)

Conditions: copper sulfate concentration up to 70% (weight percent) in the composition, applied to horse hoofs

O=S(=O)([O-])[O-].[Cu+2] [copper sulfate]
harmfulness in this usage (topical hoof thrush treatment): not be harmful
